Measured values as given in publication PMC9452769 (Molecular Plant Pathology, 2022).

Target: T1, OxyR (OxyR-His) (Xanthomonas campestris, UniProt Q8PCA2)
T1 sequence (Q8PCA2 1-313): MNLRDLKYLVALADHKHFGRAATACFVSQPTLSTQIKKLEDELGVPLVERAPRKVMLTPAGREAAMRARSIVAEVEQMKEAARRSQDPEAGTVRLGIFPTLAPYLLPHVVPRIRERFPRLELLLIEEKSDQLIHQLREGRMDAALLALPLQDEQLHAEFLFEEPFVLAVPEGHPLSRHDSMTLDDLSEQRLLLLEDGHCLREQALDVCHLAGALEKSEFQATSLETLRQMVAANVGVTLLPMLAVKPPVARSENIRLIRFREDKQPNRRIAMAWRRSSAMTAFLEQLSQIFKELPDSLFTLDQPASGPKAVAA
Experiment: microscale thermophoresis
Assay type: binding

## C[S@@+]([O-])CCCCN=C=S [sulforaphane]
  Kd: 325 ± 105 nM
